Values of other authors as cited in patent US20140228364A1, “Ophthalmic Compositions Comprising Prostaglandin F2 Alpha Derivatives and Hyaluronic Acid” (priority 2011, published 2014).

Solubility in water	Compound
almost insoluble in water	CCCCCCCC(=O)CC[C@@H]1[C@@H](C/C=C\CCCC(=O)OC(C)C)[C@@H](O)C[C@H]1O [unoprostone isopropyl, 13,14-dihydro-20-ethyl-15-ketoprostaglandin F2α-isopropylester]
almost insoluble in water	CC(C)OC(=O)CCC/C=C\C[C@@H]1[C@@H](/C=C/[C@@H](O)COc2cccc(C(F)(F)F)c2)[C@H](O)C[C@@H]1O [travoprost, 20-ethyl prostaglandin F2α-(+)-fluprostenol isopropyl ester]
almost insoluble in water	CC(C)OC(=O)CCC/C=C\C[C@@H]1[C@@H](/C=C/C(F)(F)COc2ccccc2)[C@H](O)C[C@@H]1O [tafluprost]
almost insoluble in water	CCNC(=O)CCC/C=C\C[C@@H]1[C@@H](/C=C/[C@@H](O)CCc2ccccc2)[C@H](O)C[C@@H]1O [bimatoprost]
almost insoluble in water	CC(C)OC(=O)CCC/C=C\C[C@@H]1[C@@H](CC[C@@H](O)CCc2ccccc2)[C@H](O)C[C@@H]1O [Latanoprost, isopropyl-(Z)-7-[(1R,2R,3R,5S)-3,5-dihydroxy-2-[(3R)-3-hydroxy-5-phenylpentyl]cyclopentyl]-5-heptenoate]
almost insoluble in water	CCCCC[C@H](O)/C=C/[C@H]1[C@H](O)CC(=O)[C@H]1C/C=C\CCCC(=O)O [8-isoprostaglandin E2]
